According to paper PMC12073248, “Tyrosinase Inhibitors Among Flora of Lubelskie Region—Application of Bio-Chromatographic Approach and Zebrafish Model in Bioactivity Screening of Plant Material” (Molecules, 2025):

molecular target: T1, mushroom tyrosinase (Agaricus bisporus, UniProt C7FF04); experiment: Bio-chromatographic assay: HPLC-ESI-QTOF-MS/MS of extract with and without tyrosinase; assay type: binding; details: chemometric comparison, p < 0.001
T1 sequence (C7FF04 1-392): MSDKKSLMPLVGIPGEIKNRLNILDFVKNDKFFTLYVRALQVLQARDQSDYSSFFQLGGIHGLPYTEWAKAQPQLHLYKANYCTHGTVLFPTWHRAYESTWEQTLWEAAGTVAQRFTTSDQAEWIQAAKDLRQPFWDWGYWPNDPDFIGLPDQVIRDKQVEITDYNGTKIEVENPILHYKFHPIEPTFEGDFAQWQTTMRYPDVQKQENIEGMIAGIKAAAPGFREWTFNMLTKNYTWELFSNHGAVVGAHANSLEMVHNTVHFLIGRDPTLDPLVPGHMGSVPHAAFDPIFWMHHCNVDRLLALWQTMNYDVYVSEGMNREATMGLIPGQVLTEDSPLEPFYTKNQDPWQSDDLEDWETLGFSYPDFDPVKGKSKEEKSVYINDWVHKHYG

| Compound | Presence among m/z features differentiating extract before and after tyrosinase treatment |
| --- | --- |
| COc1cc(/C=C/C(=O)O)cc(OC)c1O [sinapic acid, Sinapic acid] | present on the list of the differentiating molecular features |
| Syringetin glucoside | visible in the list of differentiating signals |
| Isopropylmalic acid | present on the list of the differentiating molecular features |
| O=C(/C=C/c1ccc(O)cc1)O[C@@H](C(=O)O)[C@@H](O)C(=O)O [coumaroyl-tartaric acid, p-Coumaroyltartaric acid] | present on the list of the differentiating molecular features |
| O=C(O)[C@]1(O)C[C@@H](O)[C@@H](O)[C@H](O)C1 [quinic acid, Quinic acid] | present on the list of the differentiating molecular features |
| O=C(O)CC(OC(=O)/C=C/c1ccc(O)c(O)c1)C(=O)O (centres unmarked) [caffeoylmalic acid, Caffeoylmalic acid] | present on the list of the differentiating molecular features |

molecular target: T1, mushroom tyrosinase; experiment: as above; assay type: binding; details: aglycons in M. recutita extract; minute content, matrix effect
Procedure: For the identification of single components responsible for interactions with tyrosinase enzymes, a bio-chromatographic assay was performed. For this purpose, two 0.5 mL portions of 1 mg/mL 50% EtOH extract of chamomile dissolved in water each were transferred to an Eppendorf vial of 2 mL. The sample coded as sample A was mixed with 0.5 mL of carbonate buffer prepared by dissolving 120 mg Na2CO3 and 12.5 mg NaHCO3 in 1000 mL of water and later diluted 40 times, whereas sample B was mixed with 0.5 mL of tyrosinase enzyme (500 U/mL) in the same carbonate buffer and diluted 40 times as sample A was.
Both samples A and B were filtered through nylon syringe filters (0.1 µm pore size) into autosampler vials and analyzed using an HPLC-ESI-QTOF-MS/MS instrument. The test was performed in triplicate. During the analysis of recorded data, the obtained chromatograms were subtracted from each other in the Mass Hunter Workstation Program to highlight the changes visible under the influence of the enzyme, and some of the potentially active components were tentatively identified thanks to high-resolution mass measurement, recorded MS/MS fragmentation patterns, and comparison with open mass databases (Metlin, HMDB, Mass Bank). Both injections—with and without the enzyme—were also compared using the Mass Profiler Professional Program (Agilent Technologies, Santa Clara, CA, USA). For this purpose, molecular feature extraction was carried out using the Profinder program v. 10.0.02 (Agilent Technologies, Santa Clara, CA, USA) to obtain a list of m/z values, retention times, and peak areas from the recorded injections, which were exported in profinder archive and detailed CSV formats for subsequent chemometric comparison. The data were filtered based on criteria including a mass tolerance of 10 ppm, retention time variation of 0.3 min, and a minimum peak area of 1% of the highest signal. The chemometric analysis performed directly within the program yielded 802 entities in positive ion mode and 715 in negative ion mode (p < 0.05), in a one-way ANOVA test with asymptotic p-value computation and Benjamini–Hochberg multiple testing correction.

| Compound | Inhibitory properties in the bio-chromatographic assay |
| --- | --- |
| O=c1cc(-c2ccc(O)c(O)c2)oc2cc(O)cc(O)c12 [luteolin, Luteolin] | did not show inhibitory properties |
| O=c1cc(-c2ccc(O)cc2)oc2cc(O)cc(O)c12 [apigenin, Apigenin] | did not show inhibitory properties |

same assay, conditions: mass chromatograms with and without enzyme

| Compound | Peak height after reaction with tyrosinase |
| --- | --- |
| O=c1c(O[C@@H]2OC[C@H](O)[C@H](O)[C@H]2O)c(-c2ccc(O)cc2)oc2cc(O)cc(O)c12 [kaempferol arabinoside, Kaempferol-3-O-alpha-L-arabinoside] | marked decrease in the peak height |
| O=C(O)CC(=O)OC[C@H]1O[C@@H](Oc2c(-c3ccc(O)cc3)oc3cc(O)cc(O)c3c2=O)[C@H](O)[C@@H](O)[C@@H]1O [kaempferol malonylglucoside, Kaempferol 3-(6″-malonylglucoside)] | marked decrease in the peak height |

same assay, conditions: negative ion mode; negative peak = decrease in intensity on reaction with the enzyme

| Compound | Peak in subtracted chromatogram (extract with enzyme minus extract) |
| --- | --- |
| O=C(O)[C@H](O)[C@@H](O)[C@H](O)[C@H](O)CO [gluconic acid, Gluconic acid] | Large negative peaks |
| Feruloyl hexose | Large negative peaks |
| O=C(O)CC(O)(CC(=O)O)C(=O)O [citric acid, Citric acid] | Large negative peaks |
| O=C(O)CC(O)C(=O)O (centres unmarked) [malic acid, Malic acid] | Large negative peaks |
| Feruloyl-glucose isomers | leading negative peak |
| Protocatechuoylglucose [protocatechuoyl-glucose] | visible negative peak |

molecular target: T1, mushroom tyrosinase; experiment: Spectrophotometric tyrosinase inhibition assay with L-DOPA as substrate; assay type: biochemical; details: standards 0.015 to 5.0 mg/mL
Procedure: The inhibitory properties of the extracts against tyrosinase were evaluated using in an in vitro assay with the mushroom tyrosinase enzyme and L-DOPA as a substrate (Sigma Aldrich, St. Louis, MO, USA). The assay was performed based on the method by Uchida and colleagues [43]. Briefly, 100 µL of 100 mM phosphate buffer (pH 6.8) and 20 µL of the diluted extracts of studied plants (1 mg/mL solution in DMSO) were pipetted into a 96 well microwell. Afterwards, 20 μL of the mushroom tyrosinase (500 U/mL) dissolved in phosphate buffer (pH 6.8) was added to each microwell and the mixture was pre-incubated for 10 min at room temperature. After incubation, 80 µL of 8 mM L-DOPA was added and the reaction was initiated and sustained at 25 °C. After 20 min, the absorbance was measured at 450 nm using a microplate reader Promega GloMax Explorer GM 3510 (Madison, MO, USA). The control sample (with 100% tyrosinase activity) contained the appropriate volume of the solvent (100 µL buffer plus 20 µL DMSO) instead of the extract. In both assays, the dopachrome formation was measured spectrophotometrically at λ = 450 nm, using a Promega microplate reader. The obtained values were corrected by the absorbance value of the background that was measured for the extracts without the mushroom tyrosinase and L-DOPA. Each sample was analyzed in three independent repetitions. […]

| Compound | IC50 [nM] |
| --- | --- |
| COc1cc(/C=C/C(=O)O)ccc1O [ferulic acid, Ferulic acid] | 484 |
